Laboratory results reported in PubChem BioAssay AID1918991 (Molecular Pharmacology Branch, DTP, NCI, 2023).
pIC50: −log10 of the molar value.

Tested on: 186277-243-T-J2-PDC complex spheroid growth
Test: Anticancer human tumor 186277-243-T-J2-PDC patient-derived colon adenocarcinoma cell line growth inhibition [AhR]
Conditions: for pIC50: curve of first compound; for viability, T/C: stronger effect = lower value; active = viability on the fitted dose curve at most 10% of control; inactive = the rest
Description: Multicellular complex tumor spheroid response to aryl hydrocarbon receptor antagonists in combination with a variety of drugs and investigational agents in selected tumor cell lines
The current study was undertaken to assess response to aryl hydrocarbon receptor antagonists in combination with standard-of-care drugs and investigational agents in solid tumor complex spheroid models. Complex spheroids include a stromal component modeled by human endothelial cells (HUVEC) and fibroblasts modeled by human mesenchymal stem cells (MSCs). The concentration ranges selected for each drug and investigational agent were based upon clinically achievable concentrations if the clinical Cmax of the agent was known.
Compounds. The drugs and investigational agents: BAY 2416964 (NSC825713), GNF351 (NSC835774), CH-223191 (NSC835775), CPI-455 (NSC825282), aza-TdCyd (NSC777586), decitabine (NSC127716), belinostat (NSC758774), entinostat (NSC756642), pevonedistat (NSC761192), tazemetostat (NSC777109), talazoparib (NSC765396), olaparib (NSC753686), selinexor (NSC780203), nedisertib (M3814, NSC802822), bortezomib (NSC756655), venetoclax (NSC766270), doxorubicin (NSC123127), elimusertib (BAY189344, NSC800525), ceralasertib (AZD6738, NSC777638), TAK-243 (NSC785004), alisertib (NSC759677), etoposide (NSC141540), topotecan (NSC609699), eribulin (NSC707389), gemcitabine (NSC613327), carboplatin (NSC241240), cisplatin (NSC119875), and SN-38 (NSC673596) were obtained from the National Cancer Institute (NCI) Developmental Therapeutics Program Chemical Repository (32). The FDA-approved anticancer drug set is available from the Developmental Therapeutics Program at https://dtp.cancer.gov/organization/dscb/obtaining/available plates.htm. […] The stock solutions were prepared in dimethyl sulfoxide (DMSO, Sigma-Aldrich, St. Louis, MO, cat. D2650), except for the platinum compounds which were prepared in saline (Quality Biological, Gaithersburg, MD, cat. 114-055-101), at 800-fold the tested concentration and stored at -70 degrees C prior to their use. All drugs and investigational agents were tested over a range starting from a high concentration at or near the clinical Cmax and decreasing in half-log increments. If the clinical Cmax for an agent had not been determined, the highest concentration tested was 10 microM (Table 1).
Cell Culture. All cells were maintained in an incubator at 37 degrees C and 5% CO2 with 95% humidity. The PDC lines were cultured according to standard operating procedures established by the NCI PDMR (https://pdmr.cancer.gov). Briefly, all PDCs were thawed and cultured in Matrigel-coated flasks prepared with a working solution of 1X Ham's F-12 nutrient mix, without supplementation (Invitrogen, Waltham, MA, cat. 11765054), 100 U/mL penicillin-streptomycin (Invitrogen, cat. 15140122), and 2.5% Matrigel (Corning Inc., Corning, NY, cat. 354248) for the first three passages. All PDCs were cultured in complete DMEM/F-12 media containing advanced DMEM/F-12 (Invitrogen, cat. 12634028), 4.9% defined fetal bovine serum, heat inactivated (HyClone Laboratories Inc., Logan, UT, cat. SH30070.03HI), 389 ng/mL hydrocortisone (Sigma-Aldrich, cat. H4001), 9.7 ng/mL human EGF recombinant protein (Invitrogen, cat. PHG0313), 23.4 microg/mL adenine (Sigma-Aldrich, cat. A2786), 97.3 U/mL penicillin-streptomycin (Invitrogen, cat. 15140122), 1.9 mM L-glutamine (Invitrogen, cat. 25030081), and 9.7 microM Y-27632 dihydrochloride (Tocris Bioscience, Bristol, United Kingdom, cat. 1254). The PDCs were cultured in complete DMEM/F12 media without 10 microM Y-27632 dihydrochloride for at least two passages prior to the screen. The established cell lines NCI-H1341 and […] were cultured in DMEM/F-12, HEPES (Invitrogen, cat. 11330032), 5% defined fetal bovine serum (HyClone Laboratories Inc., cat. SH30070.03), ITS premix universal culture supplement [insulin (5 microg/mL), transferrin (5 microg/mL), and selenious acid (5 ng/mL)] […]

[1] = second compound 0.1 µM, first compound 0.0316 µM
[2] = second compound 0.1 µM, first compound 0.1 µM
[3] = second compound 0.1 µM, first compound 0.316 µM
[4] = second compound 0.1 µM, first compound 1 µM
[5] = second compound 0.1 µM, first compound 3.16 µM
[6] = second compound 0.1 µM, first compound 10 µM
[7] = second compound 0.316 µM, first compound 0.0316 µM
[8] = second compound 0.316 µM, first compound 0.1 µM
[9] = second compound 0.316 µM, first compound 0.316 µM
[10] = second compound 0.316 µM, first compound 1 µM
[11] = second compound 0.316 µM, first compound 3.16 µM
[12] = second compound 0.316 µM, first compound 10 µM
[13] = second compound 1 µM, first compound 0.0316 µM
[14] = second compound 1 µM, first compound 0.1 µM
[15] = second compound 1 µM, first compound 0.316 µM
[16] = second compound 1 µM, first compound 1 µM
[17] = second compound 1 µM, first compound 3.16 µM
[18] = second compound 1 µM, first compound 10 µM
[19] = second compound 3.16 µM, first compound 0.0316 µM
[20] = second compound 3.16 µM, first compound 0.1 µM
[21] = second compound 3.16 µM, first compound 0.316 µM
[22] = second compound 3.16 µM, first compound 1 µM
[23] = second compound 3.16 µM, first compound 3.16 µM
[24] = second compound 3.16 µM, first compound 10 µM
[25] = second compound 10 µM, first compound 0.0316 µM
[26] = second compound 10 µM, first compound 0.1 µM
[27] = second compound 10 µM, first compound 0.316 µM
[28] = second compound 10 µM, first compound 1 µM
[29] = second compound 10 µM, first compound 3.16 µM
[30] = second compound 10 µM, first compound 10 µM
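Also: spheroids exposed to compounds for seven days before the viability read.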
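For viability, T/C in this document: luminescent signal used as a stand-in for viable cell amount; 100% = DMSO vehicle control wells.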

CCc1c2c(nc3ccc(O)cc13)-c1cc3c(c(=O)n1C2)COC(=O)[C@]3(O)CC + CC(CO)NC(=O)c1cc(-c2ccc(Cl)cc2)nn(-c2cnn(C)c2)c1=O
> 9.02: pIC50 (second compound 0.1 µM) | pIC50 (second compound 0.316 µM) | pIC50 (second compound 1 µM) | pIC50 (second compound 3.16 µM) | pIC50 (second compound 10 µM)
inactive: viability, T/C (second compound 0.1 µM, first compound 0.000949 µM) 38.7% | viability, T/C (second compound 0.1 µM, first compound 0.003 µM) 30.1% | viability, T/C (second compound 0.1 µM, first compound 0.00949 µM) 22.8% | viability, T/C (second compound 0.1 µM, first compound 0.03 µM) 16.7% | viability, T/C (second compound 0.1 µM, first compound 0.0949 µM) 10.3% | viability, T/C (second compound 0.316 µM, first compound 0.000949 µM) 38.5% | viability, T/C (second compound 0.316 µM, first compound 0.003 µM) 27.1% | viability, T/C (second compound 0.316 µM, first compound 0.00949 µM) 21.9% | viability, T/C (second compound 0.316 µM, first compound 0.03 µM) 15.6% | viability, T/C (second compound 1 µM, first compound 0.000949 µM) 37.8% | viability, T/C (second compound 1 µM, first compound 0.003 µM) 28.9% | viability, T/C (second compound 1 µM, first compound 0.00949 µM) 24.8% | viability, T/C (second compound 1 µM, first compound 0.03 µM) 16.4% | viability, T/C (second compound 1 µM, first compound 0.0949 µM) 8.38% | viability, T/C (second compound 3.16 µM, first compound 0.000949 µM) 31.3% | viability, T/C (second compound 3.16 µM, first compound 0.003 µM) 25.4% | viability, T/C (second compound 3.16 µM, first compound 0.00949 µM) 24.5% | viability, T/C (second compound 3.16 µM, first compound 0.03 µM) 15.3% | viability, T/C (second compound 3.16 µM, first compound 0.0949 µM) 9.33% | viability, T/C (second compound 10 µM, first compound 0.000949 µM) 27.5% | viability, T/C (second compound 10 µM, first compound 0.003 µM) 25.6% | viability, T/C (second compound 10 µM, first compound 0.00949 µM) 22.6% | viability, T/C (second compound 10 µM, first compound 0.03 µM) 15.4% | viability, T/C (second compound 10 µM, first compound 0.0949 µM) 8.39%
active: viability, T/C (second compound 0.1 µM, first compound 0.3 µM) 6.69% | viability, T/C (second compound 0.316 µM, first compound 0.0949 µM) 8.35% | viability, T/C (second compound 0.316 µM, first compound 0.3 µM) 5.97% | viability, T/C (second compound 1 µM, first compound 0.3 µM) 6.06% | viability, T/C (second compound 3.16 µM, first compound 0.3 µM) 6.42% | viability, T/C (second compound 10 µM, first compound 0.3 µM) 6.77%

Nc1ccn(C2OC(CO)C(O)C2(F)F)c(=O)n1 (stereo not given) + CC(CO)NC(=O)c1cc(-c2ccc(Cl)cc2)nn(-c2cnn(C)c2)c1=O
active: viability, T/C [1] 5.01% | viability, T/C [2] 4.63% | viability, T/C [3] 4.51% | viability, T/C [4] 3.71% | viability, T/C [5] 4.16% | viability, T/C [6] 4.38% | viability, T/C [7] 4.41% | viability, T/C [8] 4.36% | viability, T/C [9] 4.44% | viability, T/C [10] 4.03% | viability, T/C [11] 4.3% | viability, T/C [12] 4.3% | viability, T/C [13] 5.04% | viability, T/C [14] 4.97% | viability, T/C [15] 4.99% | viability, T/C [16] 4.1% | viability, T/C [17] 5.44% | viability, T/C [18] 4.54% | viability, T/C [19] 5.3% | viability, T/C [20] 4.96% | viability, T/C [21] 5.78% | viability, T/C [22] 5.41% | viability, T/C [23] 5.04% | viability, T/C [24] 4.36% | viability, T/C [25] 5.62% | viability, T/C [26] 5.79% | viability, T/C [27] 5.42% | viability, T/C [28] 5.48% | viability, T/C [29] 5.6% | viability, T/C [30] 4.96%
> 7.50: pIC50 (second compound 0.1 µM) | pIC50 (second compound 0.316 µM) | pIC50 (second compound 1 µM) | pIC50 (second compound 3.16 µM) | pIC50 (second compound 10 µM)

O=C(c1cc(Cc2n[nH]c(=O)c3ccccc23)ccc1F)N1CCN(C(=O)C2CC2)CC1 + CC(CO)NC(=O)c1cc(-c2ccc(Cl)cc2)nn(-c2cnn(C)c2)c1=O
5.13: pIC50 (second compound 3.16 µM)
5.07: pIC50 (second compound 1 µM)
5.19: pIC50 (second compound 0.316 µM)
5.21: pIC50 (second compound 0.1 µM)
5.33: pIC50 (second compound 10 µM)
inactive: viability, T/C [1] 99.2% | viability, T/C [2] 108% | viability, T/C [3] 102% | viability, T/C [4] 90.3% | viability, T/C [5] 69.9% | viability, T/C [6] 36.1% | viability, T/C [7] 96.3% | viability, T/C [8] 97.2% | viability, T/C [9] 100% | viability, T/C [10] 88.5% | viability, T/C [11] 74.9% | viability, T/C [12] 35.1% | viability, T/C [13] 104% | viability, T/C [14] 95.3% | viability, T/C [15] 98% | viability, T/C [16] 93.7% | viability, T/C [17] 71.6% | viability, T/C [18] 46.5% | viability, T/C [19] 98.1% | viability, T/C [20] 93.2% | viability, T/C [21] 87.9% | viability, T/C [22] 90.9% | viability, T/C [23] 71.9% | viability, T/C [24] 41.7% | viability, T/C [25] 80% | viability, T/C [26] 86.3% | viability, T/C [27] 88.5% | viability, T/C [28] 69.2% | viability, T/C [29] 58.4% | viability, T/C [30] 36.5%
